Data reported in patent US20220031697A1, “Dose and regimen for an hdm2-p53 interaction inhibitor in hematological tumors” (Novartis AG, priority 2017, published 2022).
Several values for one entry are separate records, joined by “and”; a condition that tells them apart may be missing. Equal values may be shown once. Read-outs that look alike come from different tables or passages of the source.

Test system: patients with hematological tumors
[1] = 1A 250 mg N=10, cut-off 15 Jan. 2018
[2] = 1B 120 mg N=23, cut-off 15 Jan. 2018
[3] = 2C 45 mg N=25, cut-off 15 Jan. 2018

Excerpt: Herein, data are disclosed from this multicenter, open-label, first-in-human Phase I study of HDM201 in patients with advanced TP53 wild-type (WT) leukemias.
The clinical study design allowed parallel exploration of the safety, tolerability, and clinical activity (efficacy) of two broad dosing strategies for HDM201 during dose escalation: intermittent high dose regimens (Regimen 1A and 1B) and extended low dose regimens (Regimen 2A and 2C).
This clinical study utilized a Bayesian logistic regression model (BLRM) to support dose escalation and estimate the MTD for HDM201. The BLRM enables incorporation of available prior information and updates the model parameters based upon the DLTs observed in the clinical study at varied doses in evaluable patients.

**Q.** What does the source list for `COc1ncc(-c2nc3c(n2C(C)C)[C@H](c2ccc(Cl)cc2)N(c2cc(Cl)cn(C)c2=O)C3=O)c(OC)n1` [HDM201, (S)-5-(5-Chloro-1-methyl-2-oxo-1,2-dihydro-pyridin-3-yl)-6-(4-chloro-phenyl)-2-(2,4-dimethoxy-pyrimidin-5-yl)-1-isopropyl-5,6-dihydro-1H-pyrrolo[3,4-d]imidazol-4-one]?
**A.** Abdominal Discomfort, Grade 3/4: 0 n (%); Abdominal Pain Upper, Grade 3/4: 0 n (%); Abdominal Pain, Grade 3/4: 0 n (%); Amylase Increased, Grade 3/4: 0 n (%); Arthralgia, Grade 3/4: 0 n (%); Asthenia, Grade 3/4: 0 n (%); Atrial Fibrillation, Grade 3/4: 0 n (%); Atypical Pneumonia, Grade 3/4: 0 n (%); Balanitis Candida, Grade 3/4: 0 n (%); Blood Alkaline Phosphatase Increased, Grade 3/4: 0 n (%); Blood Bilirubin Increased, Grade 3/4: 0 n (%); Blood Phosphorus Increased, Grade 3/4: 0 n (%); Cardiac Failure, Grade 3/4: 0 n (%); Conjunctival Haemorrhage, Grade 3/4: 0 n (%); Constipation, Grade 3/4: 0 n (%); Cough, Grade 3/4: 0 n (%); Cystitis Viral, Grade 3/4: 0 n (%); Cytomegalovirus Infection, Grade 3/4: 0 n (%); Decreased Appetite, Grade 3/4: 0 n (%); Diarrhoea, Grade 3/4: 0 n (%); Dyspepsia, Grade 3/4: 0 n (%); Epistaxis, Grade 3/4: 0 n (%); Fatigue, Grade 3/4: 0 n (%); General Physical Health Deterioration, Grade 3/4: 0 n (%); Gingival Bleeding, Grade 3/4: 0 n (%); Graft Versus Host Disease, Grade 3/4: 0 n (%); Haemoglobin Decreased, Grade 3/4: 0 n (%); Headache, Grade 3/4: 0 n (%); Hyperbilirubinaemia, Grade 3/4: 0 n (%); Hyperglycaemia, Grade 3/4: 0 n (%); Hyperphosphataemia, Grade 3/4: 0 n (%); Hyperuricaemia, All Grades: 2 n (%) and 2 (33.3) n (%) and 1 (14.3) n (%); Hypoalbuminaemia, Grade 3/4: 0 n (%); Hypocalcaemia, Grade 3/4: 0 n (%); Hypokalaemia, Grade 3/4: 0 n (%); Hypomagnesaemia, Grade 3/4: 0 n (%); Hyponatraemia, Grade 3/4: 0 n (%); Hypotension, Grade 3/4: 0 n (%); Infective Glossitis, Grade 3/4: 0 n (%); Influenza Like Illness, Grade 3/4: 0 n (%); Iron Overload, Grade 3/4: 0 n (%); Lip Oedema, Grade 3/4: 0 n (%); Malaise, Grade 3/4: 0 n (%); Mouth Haemorrhage, Grade 3/4: 0 n (%); Nausea, Grade 3/4: 0 n (%); Oedema Peripheral, Grade 3/4: 0 n (%); Oedema, Grade 3/4: 0 n (%); Oral Disorder, Grade 3/4: 0 n (%); Pain In Extremity, Grade 3/4: 0 n (%); Pneumonia, Grade 3/4: 0 n (%); Pollakiuria, Grade 3/4: 0 n (%); Pyrexia, Grade 3/4: 0 n (%); Rash Erythematous, Grade 3/4: 0 n (%); Rash Papular, Grade 3/4: 0 n (%); Rash, Grade 3/4: 0 n (%); Rectal Haemorrhage, Grade 3/4: 0 n (%); Skin Exfoliation, Grade 3/4: 0 n (%); Vomiting, Grade 3/4: 0 n (%); Weight Decreased, Grade 3/4: 0 n (%); Amylase Increased, All Grades [1]: 1 (10.0) n (%); Amylase Increased, Grade 3/4 [1]: 1 (10.0) n (%); Anemia, All Grades [1]: 5 (50.0) n (%); Anemia, Grade 3/4 [1]: 3 (30.0) n (%); Aspiration, All Grades [1]: 1 (10.0) n (%); Aspiration, Grade 3/4 [1]: 1 (10.0) n (%); Blood Creatinine Increased, All Grades [1]: 2 (20.0) n (%); Blood Creatinine Increased, Grade 3/4 [1]: 0 n (%); Blood Uric Acid Increased, All Grades [1]: 2 (20.0) n (%); Blood Uric Acid Increased, Grade 3/4 [1]: 1 (10.0) n (%); Diarrhoea, All Grades [1]: 3 (30.0) n (%); Diarrhoea, Grade 3/4 [1]: 0 n (%); Febrile Neutropenia, All Grades [1]: 2 (20.0) n (%); Febrile Neutropenia, Grade 3/4 [1]: 2 (20.0) n (%); Hyperkalaemia, All Grades [1]: 2 (20.0) n (%); Hyperkalaemia, Grade 3/4 [1]: 1 (10.0) n (%); Hyperuricaemia, All Grades [1]: 1 (10.0) n (%); Hyperuricaemia, Grade 3/4 [1]: 1 (10.0) n (%); Hypocalcaemia, All Grades [1]: 3 (30.0) n (%); Hypocalcaemia, Grade 3/4 [1]: 1 (10.0) n (%); Hypomagnesaemia, All Grades [1]: 2 (20.0) n (%); Hypomagnesaemia, Grade 3/4 [1]: 0 n (%); Leukopenia, All Grades [1]: 1 (10.0) n (%); Leukopenia, Grade 3/4 [1]: 1 (10.0) n (%); Megakaryocytes Abnormal, All Grades [1]: 1 (10.0) n (%); Megakaryocytes Abnormal, Grade 3/4 [1]: 1 (10.0) n (%); Nausea, All Grades [1]: 3 (30.0) n (%); Nausea, Grade 3/4 [1]: 0 n (%); Neutropenia, All Grades [1]: 4 (40.0) n (%); Neutropenia, Grade 3/4 [1]: 3 (30.0) n (%); Thrombocytopenia, All Grades [1]: 5 (50.0) n (%); Thrombocytopenia, Grade 3/4 [1]: 5 (50.0) n (%); Tumour Lysis Syndrome, All Grades [1]: 5 (50.0) n (%); Tumour Lysis Syndrome, Grade 3/4 [1]: 5 (50.0) n (%); Cycle 1 DLTs (1A (d1 Q3W) 250 mg, 3 evaluable patients): 0; Cycle 1 DLTs (1A (d1 Q3W) 350 mg, 4 evaluable patients): 0; Cycle 1 DLTs (1A (d1 Q3W) 400 mg, 9 evaluable patients): 4; Cycle 1 DLTs (1A total N = 16): 4:; Anemia, All Grades [2]: 7 (30.4) n (%); Anemia, Grade 3/4 [2]: 2 (8.7) n (%); Asthenia, All Grades [2]: 3 (13.0) n (%); Asthenia, Grade 3/4 [2]: 1 (4.3) n (%); Febrile Bone Marrow Aplasia, All Grades [2]: 3 (13.0) n (%); Febrile Bone Marrow Aplasia, Grade 3/4 [2]: 2 (8.7) n (%); Leukopenia, All Grades [2]: 3 (13.0) n (%); Leukopenia, Grade 3/4 [2]: 3 (13.0) n (%); Nausea, All Grades [2]: 6 (26.1) n (%); Nausea, Grade 3/4 [2]: 0 n (%); Neutropenia, All Grades [2]: 4 (17.4) n (%); Neutropenia, Grade 3/4 [2]: 4 (17.4) n (%); Thrombocytopenia, All Grades [2]: 10 (43.5) n (%); Thrombocytopenia, Grade 3/4 [2]: 10 (43.5) n (%); Tumour Lysis Syndrome, All Grades [2]: 4 (17.4) n (%); Tumour Lysis Syndrome, Grade 3/4 [2]: 3 (13.0) n (%); Vomiting, All Grades [2]: 3 (13.0) n (%); Vomiting, Grade 3/4 [2]: 0 n (%); Cycle 1 DLTs (1B (d1, d8 Q4W) 150 mg, 6 evaluable patients): 1; Cycle 1 DLT events (1B total N = 6): Acute Kidney; Cycle 1 DLTs (1B total N = 6): 1:; Cycle 1 DLTs (2A (2 weeks on/2 weeks off) 20 mg, 3 evaluable patients): 0; Cycle 1 DLTs (2A (2 weeks on/2 weeks off) 30 mg, 3 evaluable patients): 0; Cycle 1 DLTs (2A total N = 6): 0; Alopecia, All Grades [3]: 3 (12.0) n (%); Alopecia, Grade 3/4 [3]: 0 n (%); Anemia, All Grades [3]: 13 (52.0) n (%); Anemia, Grade 3/4 [3]: 9 (36.0) n (%); Decreased Appetite, All Grades [3]: 6 (24.0) n (%); Decreased Appetite, Grade 3/4 [3]: 0 n (%); Fatigue, All Grades [3]: 5 (20.0) n (%); Fatigue, Grade 3/4 [3]: 2 (8.0) n (%); Febrile Neutropenia, All Grades [3]: 8 (32.0) n (%); Febrile Neutropenia, Grade 3/4 [3]: 8 (32.0) n (%); Leukopenia, All Grades [3]: 5 (20.0) n (%); Leukopenia, Grade 3/4 [3]: 5 (20.0) n (%); Nausea, All Grades [3]: 12 (48.0) n (%); Nausea, Grade 3/4 [3]: 0 n (%); Neutropenia, All Grades [3]: 11 (44.0) n (%); Neutropenia, Grade 3/4 [3]: 10 (40.0) n (%); Thrombocytopenia, All Grades [3]: 13 (52.0) n (%); Thrombocytopenia, Grade 3/4 [3]: 12 (48.0) n (%); Tumour Lysis Syndrome, All Grades [3]: 3 (12.0) n (%); Tumour Lysis Syndrome, Grade 3/4 [3]: 3 (12.0) n (%); Vomiting, All Grades [3]: 6 (24.0) n (%); Vomiting, Grade 3/4 [3]: 0 n (%); Cycle 1 DLTs (2C (1 week on/3 weeks off) 45 mg, 8 evaluable patients): 1; Cycle 1 DLTs (2C total N = 8): 1; Patients with DLT (Regimen 2C 45 mg): 12.5%; Anemia, CTCAE grade 3/4 related to study drug (Regimen 2C 45 mg, 8 patients): 37.5%; Febrile neutropenia, CTCAE grade 3/4 related to study drug (Regimen 2C 45 mg, 8 patients): 37.5%; Neutropenia, CTCAE grade 3/4 related to study drug (Regimen 2C 45 mg, 8 patients): 37.5%; Patients with at least one CTCAE grade 3/4 AE related to study drug (Regimen 2C 45 mg, 8 patients): 62.5%; Thrombocytopenia, CTCAE grade 3/4 related to study drug (Regimen 2C 45 mg, 8 patients): 62.5%; Treatment-related anemia, all grades (Regimen 2C 45 mg, 8 patients): 62.5%; Treatment-related decreased appetite, all grades (Regimen 2C 45 mg, 8 patients): 50.0%; Treatment-related febrile neutropenia, all grades (Regimen 2C 45 mg, 8 patients): 37.5%; Treatment-related nausea, all grades (Regimen 2C 45 mg, 8 patients): 37.5%; Treatment-related neutropenia, all grades (Regimen 2C 45 mg, 8 patients): 50.0%; Treatment-related thrombocytopenia, all grades (Regimen 2C 45 mg, 8 patients): 62.5%
